Results reported in ChEMBL document CHEMBL1614629, “Extrapolation of human pharmacokinetic parameters from rat, dog, and monkey data: Molecular properties associated with extrapolative success or failure” (J Pharm Sci, 2005).

How the values were obtained:
[1] = Clearance in dog after iv administration; type: ADME, organism-based, Canis lupus familiaris; conditions: in vivo
[2] = Clearance in monkey after iv administration; type: ADME, organism-based; conditions: macaca, in vivo
[3] = Clearance in human after iv administration; type: ADME, organism-based; conditions: in vivo
[4] = Clearance in rat after iv administration; type: ADME, organism-based; conditions: in vivo
[5] = Volume of distribution at steady state in rat after iv administration; type: ADME, organism-based; conditions: in vivo
[6] = Volume of distribution at steady state in monkey after iv administration; type: ADME, organism-based; conditions: macaca, in vivo, read-out: Vdss
[7] = Volume of distribution at steady state in dog after iv administration; type: ADME, organism-based, Canis lupus familiaris; conditions: in vivo, read-out: Vdss
[8] = Volume of distribution at steady state in human after iv administration; type: ADME, organism-based; conditions: in vivo, read-out: Vdss

| SMILES | clearance [1] [mL/min/kg] | clearance [2] [mL/min/kg] | clearance [3] [mL/min/kg] | clearance [4] [mL/min/kg] | Vdss [5] [L/kg] | Vd [6] [L/kg] | Vd [7] [L/kg] | Vd [8] [L/kg] |
| --- | --- | --- | --- | --- | --- | --- | --- | --- |
| CC[C@]1(O)C[C@H]2CN(CCc3c([nH]c4ccccc34)[C@@](C(=O)OC)(c3cc4c(cc3OC)N(C=O)[C@H]3[C@@](O)(C(=O)OC)[C@H](OC(C)=O)[C@]5(CC)C=CCN6CC[C@]43[C@@H]65)C2)C1 [VINCRISTINE] | 9.8 | 4.8 | 1.8 | 2 | 0.41 | 1.3 | 3.1 | 8 |
| Cc1cc(=O)n(-c2ccccc2)n1C [ANTIPYRINE] | 5.5 | 4.4 | 0.66 | 10 | 0.97 | 0.74 | 0.62 | 0.87 |
| CO/N=C(\C(=O)N[C@@H]1C(=O)N2C(C(=O)O)=C(CSc3nc(C)c(CC(=O)O)s3)CS[C@H]12)c1csc(N)n1 [CEFODIZIME] | 4.1 | 1.2 | 0.73 | 1.1 | 0.18 | 0.15 | 0.26 | 0.15 |
| O=P1(N(CCCl)CCCl)NCCCO1 (stereo unspecified) [CYCLOPHOSPHAMIDE ANHYDROUS] | 20 | 20 | 2.6 | 12 | 0.8 | 1.3 | 0.7 | 0.7 |
| CCCCCNC(=O)c1coc([C@H]2[C@@H](Cc3ccccc3CCC(=O)O)[C@@H]3CC[C@H]2O3)n1 [IFETROBAN] | 65 | 19 | 6.4 | 88 | 2.8 | 5.5 | 11 | 4.4 |
| Cc1c(C)c2c(c(C)c1O)CCC(C)(COc1ccc(CC3SC(=O)NC3=O)cc1)O2 (stereo unspecified) [TROGLITAZONE] | 6.6 | 8.3 | 3.5 | 22 | 1 | 0.71 | 0.77 | 0.71 |
| CCCC(CCC)C(=O)O [VALPROIC ACID] | 3 | 4 | 0.11 | 4.2 | 0.66 | 0.15 | 0.31 | 0.15 |
| COc1cccc2c1C(=O)c1c(O)c3c(c(O)c1C2=O)C[C@@](O)(C(=O)CO)C[C@@H]3O[C@H]1C[C@H](N)[C@H](O)[C@H](C)O1 [DOXORUBICIN] | 17 | 28 | 17 | 34 | 25 | 24 | 44 | 25 |
| C[C@@H](O)[C@H]1C(=O)N2C(C(=O)[O-])=C(SC3Cn4cnc[n+]4C3)[C@H](C)[C@H]12 (stereo partly specified) [BIAPENEM] | 6.2 | 5.3 | 2.7 | 16 | 0.24 | 0.23 | 0.28 | 0.25 |
| CO/N=C(\C(=O)N[C@@H]1C(=O)N2C(C(=O)[O-])=C(C[N+]34CCC(C(N)=O)(CC3)CC4)CS[C@H]12)c1nsc(N)n1 [CEFCLIDIN] | 3.6 | 3.4 | 1.5 | 8.8 | 0.22 | 0.28 | 0.23 | 0.17 |
| O=[N+]([O-])O[C@@H]1CO[C@H]2[C@@H]1OC[C@@H]2O [ISOSORBIDE MONONITRATE] | 6.9 | 11 | 1.7 | 2.5 | 0.97 | 0.5 | 0.8 | 0.6 |
| CO/N=C(\C(=O)N[C@@H]1C(=O)N2C(C(=O)O)=CCS[C@H]12)c1csc(N)n1 [CEFTIZOXIME] | 3.3 | 5.9 | 1.8 | 19 | 0.18 | 0.12 | 0.1 | 0.23 |
